Assay results published in patent US11154589B2, “Antimicrobial composition combinations comprising star shaped peptide polymers” (The University of Melbourne, priority 2016, dated 2021).
Values after ≈ are worked out from the molar mass of the structure shown. Like-named read-outs stand apart in the source and are kept apart here. Marks after values point to notes of the source that are not given here.

Key:
[1] = system: CMDR A. baumannii (FADDI-AB156); experiment: Antibiogram of CMDR A. baumannii (MIC); format: cell-based, Acinetobacter baumannii; details: for Susceptibility: interpreted by CLSI resistant breakpoints
[2] = system: CMDR P. aeruginosa (FADDI-PA067); experiment: Antibiogram of CMDR P. aeruginosa; format: cell-based, Pseudomonas aeruginosa; details: for Susceptibility: interpreted by CLSI resistant breakpoints
[3] = system: CMDR P. aeruginosa (FADDI-PA067); experiment: MBC determination (in vitro antimicrobial experiment, CFU counting); format: cell-based, Pseudomonas aeruginosa; details: Pseudomonas aeruginosa, compound alone
Procedure: (§1) Freeze-dried cultures of Escherichia coli (E. coli, ATCC 25922), Klebsiella pneumoniae (K. pneumoniae, ATCC 13883), Pseudomonas aeruginosa (P. aeruginosa, ATCC 47085), Acinetobacter baumannii (A. baumannii, ATCC 19606), colistin and multidrug-resistant (CMDR) A. baumannii (FADDI-AB156), and CMDR P. aeruginosa (FADDI-PA067) were grown aerobically and maintained by passage at ambient temperature on horse blood agar (10% v/v defibrinated horse blood, 4.4% w/v Oxoid Blood Agar Base No. 2). Overnight cultures were made from transferring a colony (ca. half a loop) from the agar plates to culture tubes containing sterilized Luria-Bertani broth (LB, 1% w/v Bacto™ Tryptone, 1% w/v NaCl, 0.5% w/v Oxoid Yeast Extract) (20 mL). Bacterial cultures were incubated overnight at 37° C. with aeration and without agitation, with the exception of the two P. aeruginosa strains (ATCC 47085 and FADDI-PA067) which were cultured at 37° C. with aeration and agitation (150 rpm). On the next day, for E. coli, K. pneumonia, P. aeruginosa (ATCC 47085), and CMDR P. aeruginosa (FADDI-PA067), small aliquots (i.e., 0.5-3 mL) were taken from the culture tubes, further diluted with LB (20 mL), and incubated for 3-4 h at 37° C. with aeration before use. All bacterial cultures were cultured without agitation, with the exception of P. aeruginosa ATCC 47085 and FADDI-PA067 which were cultured with shaking at 150 rpm. For A. baumannii, an aliquot of 0.5 mL was taken from the overnight culture tube, further diluted with LB (200 mL), and incubated overnight at 37° C. with aeration before use.
(§2) The 96-well plate was then incubated at 37° C. for 1.5 or 3 h. For each well, microbial solution was diluted with saline (0.9% NaCl solution) using an appropriate dilution factor and placed on a LB agar plate (LB broth containing 15 g/L Oxoid Blood Agar Base No. 2). For E. coli, K. pneumoniae, and A. Baumannii (ATCC 19606 and FADDI-AB156), the agar plates were incubated overnight at room temperature, and then at 37° C. with aeration for 2 h. For P. Aeruginosa (ATCC 47085 and FADDI-PA067), the agar plates were incubated at 37° C. with aeration. The number of colony-forming units (CFU) was counted and expressed as CFU/mL. Positive controls consisting of cells without any treatment were used. […] A minimum of two independent experiments (biological replicates) of the assay were conducted and three technical replicates were used in each experiment. Data is expressed as mean±standard deviation (SD) and analysed using student's t-test.

[4] = system: Pseudomonas aeruginosa (P. aeruginosa, ATCC 47085); experiment: as above; format: cell-based; details: Pseudomonas aeruginosa, ATCC47085; compound alone; P. aeruginosa (wild-type)
Procedure: as §1, §2

[5] = system: Pseudomonas aeruginosa (P. aeruginosa, ATCC 47085); experiment: S16-antibiotic co-administration, synergy by Bliss Independence and HSA models; format: cell-based; details: for MBC in combination: S16 and antibiotic co-administered, each at MBC50
Procedure: as §2
(§3) The Bliss Independence and HSA models were used to calculate drug synergism. […] Biotechnol. 31, 160-165 (2013). With the Bliss Independence model, synergism was calculated using the formula, BICAB=A+B−AB (1), where A and B are the effects of the two drugs in isolation and BICAB is the combined effect of the two drugs as predicted by the Bliss Independence model. […] In the HSA model, if CAB is greater than the greater of A and B, CAB>max(A, B), synergy is observed. The quantitative effect of the compounds when administered alone (i.e., A and B) or in combination (i.e., CAB) was defined as the fractional reduction of the population, R=1−CFUt/CFU0, where CFUt is the CFU/mL measured after treatment, and CFU0 is the CFU/mL measured before treatment.

[6] = system: CMDR P. aeruginosa (FADDI-PA067); experiment: as above; format: cell-based, Pseudomonas aeruginosa; details: for MBC in combination: S16 and antibiotic co-administered, each at MBC50, 3 h
Procedure: as §2, §3

[7] = system: Acinetobacter baumannii (A. baumannii, ATCC 19606); experiment: MBC determination (in vitro antimicrobial experiment, CFU counting); format: cell-based; details: Acinetobacter baumannii, ATCC19606; compound alone; A. baumannii (wild-type)
Procedure: as §1, §2

[8] = system: CMDR A. baumannii (FADDI-AB156); experiment: as above; format: cell-based, Acinetobacter baumannii; details: Acinetobacter baumannii, compound alone
Procedure: as §1, §2

[9] = system: CMDR A. baumannii (FADDI-AB156); experiment: S16-antibiotic co-administration, synergy by Bliss Independence and HSA models; format: cell-based, Acinetobacter baumannii; details: for MBC in combination: S16 and antibiotic co-administered, each at MBC50, 3 h
Procedure: as §2, §3

[10] = system: Acinetobacter baumannii (A. baumannii, ATCC 19606); experiment: as above; format: cell-based; details: for MBC in combination: S16 and antibiotic co-administered, each at MBC50
Procedure: as §2, §3

[11] = Acinetobacter baumannii, CMDR A. baumannii (FADDI-AB156), read-out: MIC
[12] = CMDR A. baumannii (FADDI-AB156)
[13] = co-administered S16 (at MBC50) and antibiotic, antibiotic concentration giving at least 2-log reduction in CFU/mL, 3 h
[14] = antibiotic in combination with S16, 3 h, Bliss Independence model
[15] = antibiotic in combination with S16, 3 h, Highest Single Agent model

Compound: NCC[C@H](O)C(=O)N[C@@H]1C[C@H](N)[C@@H](O[C@H]2O[C@H](CN)[C@@H](O)[C@H](O)[C@H]2O)[C@H](O)[C@H]1O[C@H]1O[C@H](CO)[C@@H](O)[C@H](N)[C@H]1O [Amikacin]
- MIC [1, 11]: ≥ 109 µM
- Susceptibility [1, 12]: Resistant

Compound: C[C@H]1[C@H](NC(=O)/C(=N\OC(C)(C)C(=O)O)c2csc(N)n2)C(=O)N1S(=O)(=O)O [Aztreonam]
- Susceptibility [2]: Resistant

Compound: Cc1nnc(SCC2=C(C(=O)O)N3C(=O)[C@@H](NC(=O)Cn4cnnn4)[C@H]3SC2)s1 [Cefazolin]
- MIC [1, 11]: ≥ 141 µM
- Susceptibility [1, 12]: Resistant

Compound: CO/N=C(\C(=O)N[C@@H]1C(=O)N2C(C(=O)[O-])=C(C[N+]3(C)CCCC3)CS[C@H]12)c1csc(N)n1 [Cefepime]
- MIC [1, 11]: ≥ 133 µM
- Susceptibility [1, 12]: Resistant

Compound: CO[C@@]1(NC(=O)Cc2cccs2)C(=O)N2C(C(=O)O)=C(COC(N)=O)CS[C@@H]21 [Cefoxitin]
- MIC [1, 11]: ≥ 150 µM
- Susceptibility [1, 12]: Resistant

Compound: CC(C)(O/N=C(\C(=O)N[C@@H]1C(=O)N2C(C(=O)[O-])=C(C[n+]3ccccc3)CS[C@H]12)c1csc(N)n1)C(=O)O [Ceftazidime]
- Susceptibility [2]: Resistant
- MIC [1, 11]: ≥ 117 µM
- Susceptibility [1, 12]: Resistant

Compound: CO/N=C(\C(=O)N[C@@H]1C(=O)N2C(C(=O)O)=C(CSc3nc(=O)c(=O)[nH]n3C)CS[C@H]12)c1csc(N)n1 [Ceftriaxone]
- MIC [1, 11]: ≥ 115 µM
- Susceptibility [1, 12]: Resistant

Compound: O=C(O)c1cn(C2CC2)c2cc(N3CCNCC3)c(F)cc2c1=O [Ciprofloxacin]
- MIC [1, 11]: ≥ 12.1 µM

Compound: C[C@H]1c2cccc(O)c2C(=O)C2=C(O)[C@]3(O)C(=O)C(C(N)=O)=C(O)[C@@H](N(C)C)[C@@H]3[C@@H](O)[C@@H]21 [Dox, doxycycline]
- MBC [3]: 630 µM (≈ 280 µg/mL)
- MBC [4]: 50.7 µM (≈ 22.5 µg/mL)
- MBC in combination ([5]; P. aeruginosa, 3 h): 25.3 µM
- Fold reduction of MBC ([6]; MBCeff with S16 versus MBC alone): 4.2 fold
- MBC in combination [6]: 295.3 µM
- MBC in combination, MBCeff [6, 13]: 148.2^a μM

Compound: C[C@@H](O)[C@H]1C(=O)N2C(C(=O)O)=C(SCCN=CN)C[C@H]12 [Imi, imipenem]
- MBC [7]: 37.8 µM (≈ 11.3 µg/mL)
- MBC [8]: 355 µM (≈ 106 µg/mL)
- Fold reduction of MBC ([9]; MBCeff in combination versus MBC alone): 4.0 fold
- MBC in combination [9]: 177.4 µM
- MBC in combination, MBCeff [9, 13]: 88.2^a μM
- MIC [1, 11]: 355 µM (≈ 106 µg/mL)
- MBC in combination ([10]; A. baumannii, 3 h): 19.0 µM

Compound: C[C@@H](O)[C@H]1C(=O)N2C(C(=O)O)=C(S[C@@H]3CN[C@H](C(=O)N(C)C)C3)[C@H](C)[C@H]12 [Meropenem]
- MIC [1, 11]: ≥ 41.7 µM
- Susceptibility [1, 12]: Resistant

Compound: CCn1cc(C(=O)O)c(=O)c2ccc(C)nc21 [Nalidixic Acid]
- MIC ([1]; Acinetobacter baumannii): ≥ 138 µM
- Susceptibility [1, 12]: Resistant

Compound: O=C1CN(/N=C/c2ccc([N+](=O)[O-])o2)C(=O)N1 [Nitrofurantoin]
- MIC [1, 11]: ≥ 2150 µM

Compound: CCn1cc(C(=O)O)c(=O)c2cc(F)c(N3CCNCC3)cc21 [Norfloxacin]
- MIC [1, 11]: ≥ 50.1 µM
- Susceptibility [1, 12]: Resistant

Compound: CCN1CCN(C(=O)N[C@@H](C(=O)N[C@@H]2C(=O)N3[C@@H]2SC(C)(C)[C@@H]3C(=O)O)c2ccccc2)C(=O)C1=O [Piperacillin]
- Susceptibility [2]: Resistant

Compound: CC1(C)S[C@@H]2[C@H](NC(=O)[C@H](C(=O)O)c3ccsc3)C(=O)N2[C@H]1C(=O)O [Ticarcillin]
- Susceptibility [2]: Resistant

Compound: NC[C@H]1O[C@H](O[C@H]2[C@H](O)[C@@H](O[C@H]3O[C@H](CO)[C@@H](O)[C@H](N)[C@H]3O)[C@H](N)C[C@@H]2N)[C@H](N)C[C@@H]1O [Tob, tobramycin]
- MBC [3]: 239 µM (≈ 112 µg/mL)
- MBC [4]: 3.9 µM (≈ 1.82 µg/mL)
- MBC [7]: 15.2 µM (≈ 7.11 µg/mL)
- MBC [8]: > 2190 µM
- Susceptibility [2]: Resistant
- Interaction with S16 as evaluated by the Bliss Independence and HSA models (in words) ([9]; 3 h time point): non-synergistic
- MBC in combination [9]: 2190.3 µM
- Antimicrobial activity on co-administration with S16 compared to compounds alone (log change in CFU/mL) ([9]; all compounds at MBC50, t=3 h): antagonistic
- Synergistic? (Yes/No) Bliss* [9, 14]: No
- Synergistic? (Yes/No) HAS* [9, 15]: No
- MIC [1, 11]: > 2190 µM
- Susceptibility [1, 12]: Resistant
- Interaction with S16 as evaluated by the Bliss Independence and HSA models (in words) ([5]; P. aeruginosa wild-type, 3 h time point): non-synergistic
- Antimicrobial activity on co-administration with S16 compared to compounds alone (log change in CFU/mL) ([5]; P. aeruginosa wild-type, all compounds at MBC50, t=3 h): antagonism
- MBC in combination ([5]; P. aeruginosa, 3 h): 1.9 µM
- Synergistic? (Yes/No) Bliss* ([5]; antibiotic in combination with S16, P. aeruginosa, 3 h, Bliss Independence model): No
- Synergistic? (Yes/No) HAS* ([5]; antibiotic in combination with S16, P. aeruginosa, 3 h, Highest Single Agent model): No
- Interaction with S16 as evaluated by the Bliss Independence and HSA models (in words) ([10]; A. baumannii wild-type, 3 h time point): non-synergistic
- Antimicrobial activity on co-administration with S16 compared to compounds alone (log change in CFU/mL) ([10]; A. baumannii wild-type, all compounds at MBC50, t=3 h): antagonism
- MBC in combination ([10]; A. baumannii, 3 h): 7.6 µM
- Synergistic? (Yes/No) Bliss* ([10]; antibiotic in combination with S16, A. baumannii, 3 h, Bliss Independence model): No
- Synergistic? (Yes/No) HAS* ([10]; antibiotic in combination with S16, A. baumannii, 3 h, Highest Single Agent model): No
- Interaction with S16 as evaluated by the Bliss Independence and HSA models (in words) ([6]; 3 h time point): non-synergistic
- MBC in combination [6]: 119.7 µM
- Antimicrobial activity on co-administration with S16 compared to compounds alone (log change in CFU/mL) ([6]; all compounds at MBC50, t=3 h): antagonistic
- Synergistic? (Yes/No) Bliss* [6, 14]: No
- Synergistic? (Yes/No) HAS* [6, 15]: No

Compound: COc1cc(Cc2cnc(N)nc2N)cc(OC)c1OC [Trimethoprim]
- MIC [1, 11]: ≥ 55.1 µM
- Susceptibility [1, 12]: Resistant

Compound: Colistin Sulfate
- Susceptibility, concentration in parentheses [2]: > 110.8 µM
- Susceptibility [2]: Resistant
- Susceptibility [1, 12]: Resistant
- MIC ([1]; CMDR A. baumannii (FADDI-AB156), read-out: MIC): 13.8 µM
